Results on three molecules are retold here after US20250367111A1, “DELIVERY OF SUSTAINED LOCAL AND SYSTEMIC IMMUNOMODULATION” (Northeastern University, priority 2024, published 2025).

The subject of one series is TNBC. The conditions noted are these: cited from earlier work.
The conditions of series [1]: intratumoral; 40 patients with advanced metastatic solid tumors or lymphomas; cited from earlier work.
Series [2] has as its system mammary glands of BRCA1-deficient mice. The series is described as follows: Cancer biomarkers (PCNA, γ-H2AX) in mammary glands of BRCA1-deficient mice. It is filed as in vivo. The conditions noted are these: mammary glands harvested 4 weeks after treatment. The method, then: InCeT-TLZ favorably alters cancer biomarkers compared with systemic administration or empty implants. Mammary glands were harvested 4 weeks after BRCA1-deficient mice were treated with implants (InCeT-TLZ or empty InCeT) or free TLZ. As shown in, over half of the epithelial cells in the mammary glands of mice treated with empty InCeT were positive for PCNA, confirming robust proliferation.

A short description of series [3]: Blood cell count with Procyte Dx Analyzer after oral TLZ. Type of series: in vivo. The following applies: BRCA−/− breast cancer mice, indicative of bone marrow toxicity. From the text: PARPi have been limited due to induction of bone marrow toxicity.
Series [4] deals with Brca2−/−p53−/−R172H Pten−/− intraperitoneal disseminated metastatic ovarian cancer model. Description: Survival in intraperitoneal disseminated metastatic ovarian cancer model. It is filed as in vivo. The conditions noted are these: i.p.; 50 μg TLZ over 21 days (implant or equivalent dose by periodic injections). The method, then: In a Brca2^−/−p53^−/−R172H Pten^−/− intraperitoneal disseminated metastatic ovarian cancer model, SMAART-TLZ i.p implants (50 μg TLZ release over 21 days) increased median survival to 92 days compared to periodic i.p injections of TLZ at the equivalent drug dose over 21 days (70 days median OS-FIG. 6A).

For series [5] the following is noted: EMBRACA, cited from earlier work.
The test system of series [6] is BRCA−/− model with conditional BRCA1/2, PTEN, and TP53 deletions (mFT3666). The series is described as follows: Survival in BRCA−/− mOC model (mFT3666). Type of series: in vivo, mice. The conditions noted are these: free TLZ; control ~57 days. Here is the method: Sustained PARP inhibition doubles survival in BRCA^−/− mOC model. Therapeutic efficacy was tested in vivo in a BRCA^−/− model with conditional BRCA1/2, PTEN, and TP53 deletions (mFT3666) that mimics late stage disseminated disease. Free TLZ slowed disease progression and extended median survival to ˜70 days, compared with control (˜57 days). These animals eventually developed severe ascites and had to be sacrificed. A InCeT-TLZ implant loaded with 50 μg of TLZ was injected into the peritoneal cavity using an 18 gauge needle every 25 days. Most of the InCeT-TLZ group of animals survived until 93 days, with some developing ascites.

SMILES strings stand for the structures.

With `O=C(c1cc(Cc2n[nH]c(=O)c3ccccc23)ccc1F)N1CCN(C(=O)C2CC2)CC1` [olaparib], the “overall response rate (ORR)” value with TNBC (human, in vivo) is 59.9%. In addition, the “progression-free survival (PFS)” value in the series on TNBC (vs. 4.2 months standard chemotherapy) was 7 months.
Regarding `Nc1ncnc2c1ncn2[C@@H]1O[C@@H]2COP(=O)([S-])O[C@@H]3[C@H](O)[C@@H](COP([O-])(=S)O[C@H]2[C@H]1O)O[C@H]3n1cnc2c(N)ncnc21.[Na+].[Na+]` (stereo partly shown) [ADU-S100], the dose-limiting toxicities entry in series [1] is “no dose-limiting toxicities”.
`Cn1ncnc1[C@H]1c2n[nH]c(=O)c3cc(F)cc(c23)N[C@@H]1c1ccc(F)cc1` [TLZ, Talazoparib]: in series [2], the “reduction of PCNA+ cells” value is listed as roughly 50% and the γ-H2AX expression entry is “but not free TLZ increased γ-H2AX expression”. Moreover, the red blood cells entry in series [3] was “decrease in red blood cells”. Further, the median survival in series [4] was determined as 70 days. For the same molecule, the “patients with adverse events” value in series [5] was 65%. Besides, the “patients with adverse events needing dose reduction below the therapeutic level” value in series [5] (of those patients) is on record as 53%. In series [6], this molecule had a median survival of roughly 70 days.
